Measured values published in patent publication EP3822637A1, “METHOD FOR DETERMINING PARP INHIBITOR RESPONSIVENESS AND IMPROVING PARP INHIBITOR THERAPY” (Universität Zürich, priority 2019, dated 2021).
“Also recorded” adds a separate entry of the source.

Assays:
Smurf2 = Smurf2 (Homo sapiens, UniProt Q9HAU4); details: cited from earlier work
PARP1 = PARP1 protein levels in treated cells (Western blot / high-content microscopy); details: U-2 OS cancer cells; Fig. 16c
Experimental: Images were analyzed with the inbuilt Olympus ScanR Image Analysis Software Version 3.0.1, a dynamic background correction was applied, and nuclei segmentation was performed using an integrated intensity-based object detection module based on the DAPI signal. All downstream analyses were focused on properly detected nuclei containing a 2C-4C DNA content as measured by total and mean DAPI intensities. Fluorescence intensities were quantified and are depicted as arbitrary units. Color-coded scatter plots of asynchronous cell populations were generated with Spotfire data visualization software (TIBCO) and GraphPad Prism 8.0 was used for depicting data as violin plots. Within one experiment, similar cell numbers were compared for the different conditions. […] Representative scatter plots and quantifications of independent experiments, typically containing several thousand cells each, are shown. […]

TRIP12 [1] = target: T1, TRIP12 (Homo sapiens, UniProt Q14669); test: In vivo ubiquitin ligase activity assay in cells (GFP-TRIP12 and HA-ubiquitin over-expressed, immunoprecipitation); type: cell-based; details: GFP-TRIP12 immunoprecipitated and probed for HA-ubiquitin; Fig. 16b
T1 construct: The full-length TRIP12 (TRIP12-203, transcript ENST 00000389044.8) was cloned into the pAc-GFP1-C1 (Clontech) vector; expressed in transfected cells
Experimental: HEK293T or U-2 OS cells transfected with the indicated plasmids and siRNAs were washed twice with cold PBS and directly lysed on ice with RIPA buffer (50 mM Tris- HCI pH 8.0, 150 mM NaCl, 1% Igepal CA630, 0.1% SDS, 0.1% Na-deoxycholic acid), supplemented with 2 mM MgCl2, cOmplete inhibitor cocktail (Roche), phosphoSTOP (Roche), 25 U/ml benzonase, 1 mM phenylmethylsulfonylfluoride (PMSF), and 10 mM N-ethylmaleimide (NEM). Lysates were incubated for 5 minutes at room temperature and then centrifuged at 15'000 x g for 15 minutes. […] Beads were collected by centrifugation, washed four times with RIPA buffer and eluted by boiling in 10x SDS-PAGE sample buffer. Samples were subjected to SDS-PAGE for immunoblotting.

TRIP12 [2] = target: T1, TRIP12; test: In vitro ubiquitin ligase activity assay (TRIP12 auto-ubiquitylation, with and without PAR chains); type: biochemical; details: absence and presence of PAR chains; Fig. 16a
Experimental: HEK293T cells were transfected with plasmids encoding FLAG-TRIP12 WT or the point mutants R869A or C2034A. Cells were lysed in TNE buffer (50 mM Tris-HCI pH 8.0, 150 mM NaCl, 0,1% Igepal CA630, 1 mM EDTA) supplemented with 2 mM MgCl2, cOmplete inhibitor cocktail (Roche), phosphoSTOP (Roche) and 25 U/ml benzonase. One milligram of protein lysates was immunoprecipitated using protein G- sepharose (GE Heltcare) coupled to 1 µl of anti-FLAG antibody for 3 hours at 4°C. After four washes with IP buffer the beads were first equilibrated in TE buffer (50 mM Tris-HCI pH 8.0, 150 mM NaCl) supplemented with cOmplete inhibitor cocktail (Roche), 1 mM PMSF, and then re-suspended in 5 volumes of TE buffer with 0.3 mg/ml FLAG peptide (3x FLAG peptide, Sigma) for 1 hour at 4°C at low rpm. Samples were then centrifuged at 100 x g for two minutes and the supernatant containing the eluted protein was stored at -80°C.
Auto-PARylated PARP1 was bound to histidine beads (ProBond) for 45 minutes at 4°C. The beads were then equilibrated in reaction buffer (25 mM Tris-HCI pH 7.4, 100 mM NaCl) and equally distributed in reaction tubes. […]

WWP2 = WWP2 (Homo sapiens, UniProt O00308); details: cited from earlier work
cancer cells = test: Clonogenic survival assay, Heclin combined with PARPi; type: cell-based; details: Heclin combined with PARP inhibitor Olaparib; Fig. 16d
Experimental: Cells transfected with the indicated siRNAs were seeded at single cell density and exposed to PARPi at the indicated final concentration. All conditions were performed in triplicates. Cells were then incubated for 10 days and the number of colonies with more than 50 cells was counted after staining with crystal violet (0.5% crystal violet in 20% ethanol). GraphPad Prism was used to display clonogenic survival data.

Nedd4 = target: T2, Nedd4 (Homo sapiens, UniProt P46934); details: cited from earlier work
T2 sequence (P46934 1-1319): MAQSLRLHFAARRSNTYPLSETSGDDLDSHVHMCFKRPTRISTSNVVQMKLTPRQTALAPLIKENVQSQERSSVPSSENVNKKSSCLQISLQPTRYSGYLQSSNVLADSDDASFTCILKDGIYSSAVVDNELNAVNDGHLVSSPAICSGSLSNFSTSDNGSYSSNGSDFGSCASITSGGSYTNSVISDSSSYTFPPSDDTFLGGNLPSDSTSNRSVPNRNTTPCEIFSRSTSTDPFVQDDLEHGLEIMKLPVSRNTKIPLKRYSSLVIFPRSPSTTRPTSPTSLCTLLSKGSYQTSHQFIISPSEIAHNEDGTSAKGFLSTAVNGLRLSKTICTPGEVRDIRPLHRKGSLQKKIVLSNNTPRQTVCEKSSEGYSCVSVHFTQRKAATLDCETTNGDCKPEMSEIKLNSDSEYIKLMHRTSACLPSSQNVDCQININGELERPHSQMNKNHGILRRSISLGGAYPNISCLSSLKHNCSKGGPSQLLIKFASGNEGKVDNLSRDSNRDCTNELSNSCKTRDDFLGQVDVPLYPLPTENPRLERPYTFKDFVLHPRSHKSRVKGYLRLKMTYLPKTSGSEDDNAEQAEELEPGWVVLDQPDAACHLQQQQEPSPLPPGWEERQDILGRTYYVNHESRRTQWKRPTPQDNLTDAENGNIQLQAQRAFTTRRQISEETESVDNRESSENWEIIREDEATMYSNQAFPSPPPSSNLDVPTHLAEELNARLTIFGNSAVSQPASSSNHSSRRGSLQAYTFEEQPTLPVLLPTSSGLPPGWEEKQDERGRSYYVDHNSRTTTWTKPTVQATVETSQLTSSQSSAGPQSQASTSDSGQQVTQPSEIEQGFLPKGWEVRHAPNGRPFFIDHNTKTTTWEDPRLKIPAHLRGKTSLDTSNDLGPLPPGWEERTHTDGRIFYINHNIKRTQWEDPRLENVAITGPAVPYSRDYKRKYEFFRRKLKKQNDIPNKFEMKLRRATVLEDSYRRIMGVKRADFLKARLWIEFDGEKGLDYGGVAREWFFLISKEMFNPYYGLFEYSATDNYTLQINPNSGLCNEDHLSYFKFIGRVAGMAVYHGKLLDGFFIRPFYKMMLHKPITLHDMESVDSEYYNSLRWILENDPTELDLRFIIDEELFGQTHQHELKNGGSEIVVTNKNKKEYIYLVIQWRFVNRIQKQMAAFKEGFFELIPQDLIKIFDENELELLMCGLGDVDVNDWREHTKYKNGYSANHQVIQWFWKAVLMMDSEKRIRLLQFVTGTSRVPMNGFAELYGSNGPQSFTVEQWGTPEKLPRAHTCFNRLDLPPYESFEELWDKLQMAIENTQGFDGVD

[3] = system: BRCA-proficient cancer cells; test: Clonogenic survival (colony formation) assay with PARPi after siRNA down-regulation of TRIP12; type: cell-based, Human; details: siRNA against TRIP12; increasing doses of PARPi; 10 days; rescued by PARP1 co-depletion; Fig. 6a-d, 12a-c
Experimental: Human U-2 OS cells (ATCC), RPE-1 (ATCC), HEK293T (ATCC), MCF-7 (kindly provided by Ross Chapman), MDA-MB-436 (kindly provided by Michael Hottiger), U-2 OS PARP1 KO cells (kindly provided by Keith Caldecott) and HeLa Kyoto PARP1-LAP cells stably expressing EGFP-tagged PARP1 from its natural promoter (kindly provided by Stoyno S. Stoynov) were grown under standard sterile cell culture conditions (37°C, humidified atmosphere, 5% CO2) in Dulbecco's modified Eagle's medium (DMEM, Thermo Fisher Scientific) containing 10% fetal bovine serum (GIBCO) and 1% of penicillin-streptomycin antibiotics. HCC1143 cells (kindly provided by Mohamed Bentires-Alj) were grown in RPMI-1640 medium (Thermo Fisher Scientific) containing 10% fetal bovine serum (GIBCO) and 1% penicillin- streptomycin antibiotics. SUM149PT (generated by the Ethier laboratory; available at http://www.bioivt.com/ and kindly provided by Alessandro Sartori) were grown in Ham's F-12 medium (Thermo Fisher Scientific) containing 10% fetal bovine serum and 1% of penicillin-streptomycin antibiotics. All cultured cells were routinely tested for mycoplasma contamination and assessed by quantitative image-based cytometry (QIBC) for proper proliferation and absence of abnormal stress signals. […] Transfections with siRNAs were performed for 72h, unless stated otherwise, with Ambion Silencer Select siRNA using Lipofectamine RNAi/MAX (Thermo Fisher Scientific). For individual transfections the siRNAs were used at a final concentration of 25nM. When multiple siRNAs were combined, the final concentration was kept constant in all samples of an experiment. The following Ambion Silencer Select siRNAs were used: TRIP12 (s17808, s17809, s17810), PARP1 (s1098), DTX1 (s4355, s4356), DTX2 (s41519, s223231), DTX4 (s23319, s23321), HUWE1 (s19596, s19597), RNF146 (s37821, s37822). […] Cells were then incubated for 10 days and the number of colonies with more than 50 cells was counted after staining with crystal violet (0.5% crystal violet in 20% ethanol). […]

T1 sequence (Q14669 with tags, fused parts or gaps): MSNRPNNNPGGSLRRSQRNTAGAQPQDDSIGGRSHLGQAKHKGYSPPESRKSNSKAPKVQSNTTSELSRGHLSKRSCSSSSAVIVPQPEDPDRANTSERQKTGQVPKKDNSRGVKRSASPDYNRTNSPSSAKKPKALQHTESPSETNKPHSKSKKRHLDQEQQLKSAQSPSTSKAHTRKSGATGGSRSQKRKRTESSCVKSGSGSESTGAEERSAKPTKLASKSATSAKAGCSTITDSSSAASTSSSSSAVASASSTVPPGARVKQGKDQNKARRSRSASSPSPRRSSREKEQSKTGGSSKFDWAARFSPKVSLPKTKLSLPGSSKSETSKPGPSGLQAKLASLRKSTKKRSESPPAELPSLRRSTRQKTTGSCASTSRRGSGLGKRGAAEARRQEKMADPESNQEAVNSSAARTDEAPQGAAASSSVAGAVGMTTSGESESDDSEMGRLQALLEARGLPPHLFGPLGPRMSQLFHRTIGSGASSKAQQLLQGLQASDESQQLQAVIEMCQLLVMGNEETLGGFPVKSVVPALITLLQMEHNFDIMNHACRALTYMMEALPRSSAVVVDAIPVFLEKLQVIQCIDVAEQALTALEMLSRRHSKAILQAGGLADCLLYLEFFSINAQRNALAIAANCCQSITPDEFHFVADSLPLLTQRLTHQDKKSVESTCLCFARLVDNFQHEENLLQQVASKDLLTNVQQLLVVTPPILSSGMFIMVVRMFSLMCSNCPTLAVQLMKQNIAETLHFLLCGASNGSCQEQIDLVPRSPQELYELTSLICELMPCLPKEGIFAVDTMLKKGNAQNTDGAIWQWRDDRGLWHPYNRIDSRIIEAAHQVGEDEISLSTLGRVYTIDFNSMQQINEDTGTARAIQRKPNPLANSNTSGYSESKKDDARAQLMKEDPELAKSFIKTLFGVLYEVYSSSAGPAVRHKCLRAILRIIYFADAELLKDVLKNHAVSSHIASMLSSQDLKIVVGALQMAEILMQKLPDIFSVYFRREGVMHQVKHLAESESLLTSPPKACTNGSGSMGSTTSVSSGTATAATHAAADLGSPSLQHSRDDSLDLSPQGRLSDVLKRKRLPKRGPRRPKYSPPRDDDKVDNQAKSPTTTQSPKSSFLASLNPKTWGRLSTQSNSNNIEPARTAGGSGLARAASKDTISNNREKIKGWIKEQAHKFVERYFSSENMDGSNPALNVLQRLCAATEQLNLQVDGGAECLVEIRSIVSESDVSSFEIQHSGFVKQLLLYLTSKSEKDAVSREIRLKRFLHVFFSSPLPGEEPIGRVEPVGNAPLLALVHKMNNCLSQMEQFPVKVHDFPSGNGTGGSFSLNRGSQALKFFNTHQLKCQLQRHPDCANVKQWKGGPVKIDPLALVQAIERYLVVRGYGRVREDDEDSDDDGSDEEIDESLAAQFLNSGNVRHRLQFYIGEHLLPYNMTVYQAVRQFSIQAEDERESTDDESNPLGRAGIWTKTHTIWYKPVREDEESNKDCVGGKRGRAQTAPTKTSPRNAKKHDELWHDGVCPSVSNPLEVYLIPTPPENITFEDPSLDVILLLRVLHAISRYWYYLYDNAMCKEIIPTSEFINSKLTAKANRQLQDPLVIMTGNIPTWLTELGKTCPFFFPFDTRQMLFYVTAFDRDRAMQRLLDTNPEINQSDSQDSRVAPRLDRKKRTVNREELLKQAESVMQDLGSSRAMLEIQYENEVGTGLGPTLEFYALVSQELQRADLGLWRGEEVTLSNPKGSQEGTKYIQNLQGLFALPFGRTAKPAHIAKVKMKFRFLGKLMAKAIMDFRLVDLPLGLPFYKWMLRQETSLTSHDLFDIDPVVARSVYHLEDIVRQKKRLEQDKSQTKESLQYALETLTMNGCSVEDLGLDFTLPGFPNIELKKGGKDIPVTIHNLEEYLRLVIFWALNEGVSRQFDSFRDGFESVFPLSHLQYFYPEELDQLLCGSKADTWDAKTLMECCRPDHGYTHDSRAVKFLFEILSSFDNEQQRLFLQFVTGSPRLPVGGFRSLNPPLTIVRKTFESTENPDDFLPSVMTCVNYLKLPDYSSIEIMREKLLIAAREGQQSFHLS
Smurf2, sequence (Q9HAU4 whole entry, species assumed): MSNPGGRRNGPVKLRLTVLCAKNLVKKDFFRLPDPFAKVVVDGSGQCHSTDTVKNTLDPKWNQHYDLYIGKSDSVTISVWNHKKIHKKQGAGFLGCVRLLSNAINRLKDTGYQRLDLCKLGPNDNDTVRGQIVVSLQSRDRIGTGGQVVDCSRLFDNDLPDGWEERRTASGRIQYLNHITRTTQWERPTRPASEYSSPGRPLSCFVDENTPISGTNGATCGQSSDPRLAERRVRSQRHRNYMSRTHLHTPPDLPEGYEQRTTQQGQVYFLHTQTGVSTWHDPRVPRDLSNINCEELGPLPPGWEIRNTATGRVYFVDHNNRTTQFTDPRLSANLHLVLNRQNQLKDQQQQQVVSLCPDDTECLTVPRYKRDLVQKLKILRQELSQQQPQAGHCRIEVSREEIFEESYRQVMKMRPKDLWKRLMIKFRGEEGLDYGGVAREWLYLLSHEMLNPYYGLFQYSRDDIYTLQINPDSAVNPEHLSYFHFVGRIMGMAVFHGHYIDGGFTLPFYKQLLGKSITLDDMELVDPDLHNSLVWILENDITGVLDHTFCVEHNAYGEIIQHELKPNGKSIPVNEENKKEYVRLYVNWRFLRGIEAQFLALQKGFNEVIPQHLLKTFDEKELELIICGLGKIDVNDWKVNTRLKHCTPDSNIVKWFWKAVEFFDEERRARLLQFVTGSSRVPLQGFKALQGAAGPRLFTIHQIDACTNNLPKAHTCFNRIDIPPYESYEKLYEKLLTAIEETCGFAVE
WWP2, sequence (O00308 whole entry, species assumed): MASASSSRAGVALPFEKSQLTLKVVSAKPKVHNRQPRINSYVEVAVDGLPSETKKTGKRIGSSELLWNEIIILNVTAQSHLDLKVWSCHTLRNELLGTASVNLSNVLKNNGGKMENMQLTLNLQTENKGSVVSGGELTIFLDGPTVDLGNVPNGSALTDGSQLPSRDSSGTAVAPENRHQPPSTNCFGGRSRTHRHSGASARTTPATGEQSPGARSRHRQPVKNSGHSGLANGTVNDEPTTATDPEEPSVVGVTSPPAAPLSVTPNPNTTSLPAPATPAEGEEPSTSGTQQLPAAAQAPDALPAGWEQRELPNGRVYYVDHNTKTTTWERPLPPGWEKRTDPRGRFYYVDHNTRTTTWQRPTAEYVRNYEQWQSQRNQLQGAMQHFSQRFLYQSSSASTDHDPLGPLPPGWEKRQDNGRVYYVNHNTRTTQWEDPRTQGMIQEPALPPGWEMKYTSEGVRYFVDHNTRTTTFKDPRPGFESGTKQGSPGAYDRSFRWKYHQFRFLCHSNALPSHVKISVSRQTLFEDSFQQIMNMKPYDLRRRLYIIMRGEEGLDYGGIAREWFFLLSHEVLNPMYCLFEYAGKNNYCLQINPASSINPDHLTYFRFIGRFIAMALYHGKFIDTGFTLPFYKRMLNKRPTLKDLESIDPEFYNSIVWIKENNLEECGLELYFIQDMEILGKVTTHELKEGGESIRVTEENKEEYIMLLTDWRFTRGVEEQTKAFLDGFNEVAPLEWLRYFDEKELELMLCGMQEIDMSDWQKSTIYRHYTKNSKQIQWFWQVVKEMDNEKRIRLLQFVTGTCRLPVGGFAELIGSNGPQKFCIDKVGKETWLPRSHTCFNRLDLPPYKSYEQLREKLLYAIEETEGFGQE

SMILES: CCc1ccc(C=CC(=O)Nc2ccc(C(C)=O)cc2)o1 [Heclin, N-(4-Acetylphenyl)-3-(5-ethyl-2-furanyl)-2-propenamide]
- inhibition of ubiquitin ligase Smurf2 (Smurf2): inhibit
- PARP1 levels upon Heclin treatment of cells (PARP1): stabilizes PARP1 in U-2 OS cancer cells in a time- and dose-dependent manner; also recorded: elevated PARP1 levels, in a time- and dose-dependent manner
- TRIP12 activity in vivo (TRIP12 [1]): inhibited
- TRIP12 activity in vitro (TRIP12 [2]): inhibited
- inhibition of ubiquitin ligase WWP2 (WWP2): inhibit
- sensitization of cancer cells to PARPi in clonogenic survival assays (cancer cells): synergizes with the PARP inhibitor Olaparib to kill cancer cells; also recorded: sensitized cancer cells to PARPi
- inhibition of ubiquitin ligase Nedd4 (Nedd4): inhibit

SMILES: O=C(c1cc(Cc2n[nH]c(=O)c3ccccc23)ccc1F)N1CCN(C(=O)C2CC2)CC1 [Olaparib]
- clonogenic survival upon PARPi exposure after TRIP12 down-regulation [3]: greatly sensitized

SMILES: CNCc1ccc(-c2[nH]c3cc(F)cc4c3c2CCNC4=O)cc1 [Rucaparib]
- clonogenic survival upon PARPi exposure after TRIP12 down-regulation [3]: Very similar results

SMILES: Cn1ncnc1[C@H]1c2n[nH]c(=O)c3cc(F)cc(c23)N[C@@H]1c1ccc(F)cc1 [Talazoparib]
- clonogenic survival upon PARPi exposure after TRIP12 down-regulation [3]: Very similar results
